In ChEMBL document CHEMBL4507276 (2021):

What was measured:
Conditions in all cases: Compound concentration 1000.0 nM
[1] = biological target: Tyrosine-protein kinase Fgr (Homo sapiens) (UniProt P09769)
[2] = biological target: Tyrosine-protein kinase ABL1 (Homo sapiens) (UniProt P00519)
[3] = biological target: Ephrin type-A receptor 5 (Homo sapiens) (UniProt P54756)
[4] = biological target: Cyclin-dependent kinase 9 (Homo sapiens) (UniProt P50750)
[5] = biological target: Serine/threonine-protein kinase SIK1 (Homo sapiens) (UniProt P57059)
Sequence of Serine/threonine-protein kinase SIK1 (Homo sapiens) (P57059 whole entry): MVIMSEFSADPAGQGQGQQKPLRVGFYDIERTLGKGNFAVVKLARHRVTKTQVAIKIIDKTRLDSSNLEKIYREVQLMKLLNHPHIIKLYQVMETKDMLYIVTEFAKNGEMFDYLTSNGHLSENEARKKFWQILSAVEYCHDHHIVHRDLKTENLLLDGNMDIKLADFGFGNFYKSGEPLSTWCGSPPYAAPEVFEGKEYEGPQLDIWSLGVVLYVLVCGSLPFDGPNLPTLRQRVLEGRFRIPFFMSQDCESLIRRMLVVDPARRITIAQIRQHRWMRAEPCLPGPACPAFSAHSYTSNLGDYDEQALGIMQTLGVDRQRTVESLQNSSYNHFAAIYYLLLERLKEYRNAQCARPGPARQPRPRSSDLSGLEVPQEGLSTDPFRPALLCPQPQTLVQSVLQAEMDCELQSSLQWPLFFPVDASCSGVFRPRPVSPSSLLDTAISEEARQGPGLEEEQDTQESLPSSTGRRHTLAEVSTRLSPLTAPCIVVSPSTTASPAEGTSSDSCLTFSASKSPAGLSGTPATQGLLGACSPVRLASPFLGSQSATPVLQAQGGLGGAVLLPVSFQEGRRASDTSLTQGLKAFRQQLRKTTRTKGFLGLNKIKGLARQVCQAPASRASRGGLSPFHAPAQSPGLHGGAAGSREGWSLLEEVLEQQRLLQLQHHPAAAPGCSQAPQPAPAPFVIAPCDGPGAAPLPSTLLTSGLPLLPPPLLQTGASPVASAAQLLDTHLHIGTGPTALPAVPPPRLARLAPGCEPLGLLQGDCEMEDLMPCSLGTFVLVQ

[6] = biological target: Tyrosine-protein kinase Blk (Homo sapiens) (UniProt P51451)
Sequence of Tyrosine-protein kinase Blk (Homo sapiens) (P51451 2-505 limits assumed): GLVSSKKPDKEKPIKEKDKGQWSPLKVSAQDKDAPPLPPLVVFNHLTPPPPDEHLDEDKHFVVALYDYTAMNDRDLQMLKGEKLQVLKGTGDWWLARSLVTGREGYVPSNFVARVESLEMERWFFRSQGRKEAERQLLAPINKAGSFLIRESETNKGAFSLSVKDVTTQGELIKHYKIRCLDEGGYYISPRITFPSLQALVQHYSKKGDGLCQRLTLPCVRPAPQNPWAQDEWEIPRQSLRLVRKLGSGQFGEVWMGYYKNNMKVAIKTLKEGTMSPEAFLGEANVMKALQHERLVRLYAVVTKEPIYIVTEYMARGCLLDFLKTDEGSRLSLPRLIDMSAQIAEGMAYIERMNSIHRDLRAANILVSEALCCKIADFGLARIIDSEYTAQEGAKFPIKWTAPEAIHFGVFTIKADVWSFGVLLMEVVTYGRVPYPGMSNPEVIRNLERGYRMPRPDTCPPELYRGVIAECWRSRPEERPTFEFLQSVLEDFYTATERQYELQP

[7] = system: T1, Receptor-type tyrosine-protein kinase FLT3 (Homo sapiens), P36888 [D835Y]
T1 sequence (whole entry): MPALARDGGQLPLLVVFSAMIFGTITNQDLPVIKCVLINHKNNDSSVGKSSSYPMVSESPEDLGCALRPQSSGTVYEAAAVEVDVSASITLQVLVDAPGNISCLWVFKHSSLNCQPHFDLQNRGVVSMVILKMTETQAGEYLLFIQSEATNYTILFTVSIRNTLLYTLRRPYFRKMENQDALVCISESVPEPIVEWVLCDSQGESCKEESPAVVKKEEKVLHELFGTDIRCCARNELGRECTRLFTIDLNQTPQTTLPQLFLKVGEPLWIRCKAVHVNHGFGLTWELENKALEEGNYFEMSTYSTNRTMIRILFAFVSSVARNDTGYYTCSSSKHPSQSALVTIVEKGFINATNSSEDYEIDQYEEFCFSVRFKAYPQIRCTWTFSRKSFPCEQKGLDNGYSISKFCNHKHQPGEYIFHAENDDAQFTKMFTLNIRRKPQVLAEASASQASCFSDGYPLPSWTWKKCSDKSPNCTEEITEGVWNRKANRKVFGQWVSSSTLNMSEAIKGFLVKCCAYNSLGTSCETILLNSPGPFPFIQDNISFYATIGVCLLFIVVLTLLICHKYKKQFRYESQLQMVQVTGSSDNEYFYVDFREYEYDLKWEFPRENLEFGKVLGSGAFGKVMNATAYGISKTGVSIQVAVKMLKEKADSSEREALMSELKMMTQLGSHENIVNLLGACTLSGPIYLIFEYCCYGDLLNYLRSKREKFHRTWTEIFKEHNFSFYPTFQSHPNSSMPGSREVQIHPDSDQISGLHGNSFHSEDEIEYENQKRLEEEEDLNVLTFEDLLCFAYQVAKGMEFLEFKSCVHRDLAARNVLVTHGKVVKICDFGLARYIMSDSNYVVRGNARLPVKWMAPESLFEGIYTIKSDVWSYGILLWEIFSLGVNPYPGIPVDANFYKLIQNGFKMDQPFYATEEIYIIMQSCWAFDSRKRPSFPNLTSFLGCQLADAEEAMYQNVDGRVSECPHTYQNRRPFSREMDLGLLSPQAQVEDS

[8] = biological target: Homeodomain-interacting protein kinase 1 (Homo sapiens) (UniProt Q86Z02)
Sequence of Homeodomain-interacting protein kinase 1 (Homo sapiens) (Q86Z02 whole entry, looked up): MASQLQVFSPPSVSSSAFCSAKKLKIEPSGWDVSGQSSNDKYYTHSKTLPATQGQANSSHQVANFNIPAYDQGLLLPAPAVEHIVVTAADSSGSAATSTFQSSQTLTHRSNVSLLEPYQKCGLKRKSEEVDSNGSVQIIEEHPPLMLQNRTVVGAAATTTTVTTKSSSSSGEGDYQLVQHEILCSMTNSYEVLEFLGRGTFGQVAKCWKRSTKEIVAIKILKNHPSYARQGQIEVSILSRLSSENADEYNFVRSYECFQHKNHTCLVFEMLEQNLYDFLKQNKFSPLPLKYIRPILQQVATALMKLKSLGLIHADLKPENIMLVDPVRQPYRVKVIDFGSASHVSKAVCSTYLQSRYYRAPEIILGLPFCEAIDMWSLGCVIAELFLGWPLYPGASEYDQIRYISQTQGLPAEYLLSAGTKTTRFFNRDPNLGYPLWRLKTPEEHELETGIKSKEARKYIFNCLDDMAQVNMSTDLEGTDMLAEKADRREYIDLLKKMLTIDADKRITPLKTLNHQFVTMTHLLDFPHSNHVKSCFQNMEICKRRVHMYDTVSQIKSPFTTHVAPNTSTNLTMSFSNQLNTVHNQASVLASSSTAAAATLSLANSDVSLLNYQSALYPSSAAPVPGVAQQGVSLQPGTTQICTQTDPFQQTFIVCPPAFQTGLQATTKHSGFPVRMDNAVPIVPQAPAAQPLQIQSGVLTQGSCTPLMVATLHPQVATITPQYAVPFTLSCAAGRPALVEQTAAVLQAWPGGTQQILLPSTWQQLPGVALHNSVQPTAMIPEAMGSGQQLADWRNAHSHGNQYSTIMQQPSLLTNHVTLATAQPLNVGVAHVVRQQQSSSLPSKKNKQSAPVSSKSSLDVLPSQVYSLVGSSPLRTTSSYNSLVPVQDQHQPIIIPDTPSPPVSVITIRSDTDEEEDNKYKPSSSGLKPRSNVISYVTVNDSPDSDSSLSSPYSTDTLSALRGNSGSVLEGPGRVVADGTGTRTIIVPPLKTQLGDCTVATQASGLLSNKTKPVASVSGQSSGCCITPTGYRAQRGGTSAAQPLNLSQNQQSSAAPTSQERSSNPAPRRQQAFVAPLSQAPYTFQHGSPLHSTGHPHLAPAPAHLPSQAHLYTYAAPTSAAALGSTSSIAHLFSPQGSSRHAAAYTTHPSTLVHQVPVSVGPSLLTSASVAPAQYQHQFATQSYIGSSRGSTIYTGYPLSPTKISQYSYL

[9] = biological target: Serine/threonine-protein kinase Nek10 (Homo sapiens) (UniProt Q6ZWH5)
[10] = biological target: T2, Tyrosine-protein kinase Tec (Homo sapiens) (UniProt P42680)
T2 sequence (whole entry): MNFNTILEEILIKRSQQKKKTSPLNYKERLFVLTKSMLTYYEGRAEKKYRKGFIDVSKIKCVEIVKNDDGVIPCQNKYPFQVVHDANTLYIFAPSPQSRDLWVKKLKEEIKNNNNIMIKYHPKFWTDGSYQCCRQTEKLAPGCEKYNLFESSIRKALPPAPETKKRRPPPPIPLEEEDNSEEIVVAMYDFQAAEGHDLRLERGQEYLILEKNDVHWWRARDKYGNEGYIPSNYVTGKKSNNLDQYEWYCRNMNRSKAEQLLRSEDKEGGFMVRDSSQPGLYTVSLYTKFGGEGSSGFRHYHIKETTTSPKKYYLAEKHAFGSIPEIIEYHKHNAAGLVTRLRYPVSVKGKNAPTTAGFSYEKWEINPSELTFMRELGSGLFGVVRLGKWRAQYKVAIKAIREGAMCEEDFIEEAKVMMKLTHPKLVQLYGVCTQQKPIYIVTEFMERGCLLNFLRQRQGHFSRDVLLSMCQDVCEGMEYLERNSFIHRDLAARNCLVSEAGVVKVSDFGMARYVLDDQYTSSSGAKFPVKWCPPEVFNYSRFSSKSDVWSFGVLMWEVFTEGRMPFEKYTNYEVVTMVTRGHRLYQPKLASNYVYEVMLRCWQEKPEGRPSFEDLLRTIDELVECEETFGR

[11] = system: ALK tyrosine kinase receptor (Homo sapiens), Q9UM73 [L1196M]
[12] = biological target: Serine/threonine-protein kinase 33 (Homo sapiens) (UniProt Q9BYT3)
Sequence of Serine/threonine-protein kinase 33 (Homo sapiens) (Q9BYT3 whole entry, looked up): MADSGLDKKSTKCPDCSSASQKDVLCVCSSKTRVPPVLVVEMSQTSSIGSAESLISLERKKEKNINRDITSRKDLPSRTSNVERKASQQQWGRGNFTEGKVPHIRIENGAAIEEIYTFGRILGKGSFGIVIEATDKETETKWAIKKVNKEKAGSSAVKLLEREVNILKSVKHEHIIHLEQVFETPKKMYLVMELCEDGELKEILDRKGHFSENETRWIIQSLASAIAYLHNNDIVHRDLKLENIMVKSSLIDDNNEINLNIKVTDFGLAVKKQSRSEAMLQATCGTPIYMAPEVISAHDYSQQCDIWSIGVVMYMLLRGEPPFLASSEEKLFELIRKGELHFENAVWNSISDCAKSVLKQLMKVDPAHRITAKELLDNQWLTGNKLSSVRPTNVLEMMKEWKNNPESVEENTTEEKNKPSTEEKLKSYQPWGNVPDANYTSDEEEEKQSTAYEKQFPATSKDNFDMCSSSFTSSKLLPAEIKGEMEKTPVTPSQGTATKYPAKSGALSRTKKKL

[13] = biological target: Tyrosine-protein kinase FRK (Homo sapiens) (UniProt P42685)
Sequence of Tyrosine-protein kinase FRK (Homo sapiens) (P42685 whole entry, the tested form may be a part): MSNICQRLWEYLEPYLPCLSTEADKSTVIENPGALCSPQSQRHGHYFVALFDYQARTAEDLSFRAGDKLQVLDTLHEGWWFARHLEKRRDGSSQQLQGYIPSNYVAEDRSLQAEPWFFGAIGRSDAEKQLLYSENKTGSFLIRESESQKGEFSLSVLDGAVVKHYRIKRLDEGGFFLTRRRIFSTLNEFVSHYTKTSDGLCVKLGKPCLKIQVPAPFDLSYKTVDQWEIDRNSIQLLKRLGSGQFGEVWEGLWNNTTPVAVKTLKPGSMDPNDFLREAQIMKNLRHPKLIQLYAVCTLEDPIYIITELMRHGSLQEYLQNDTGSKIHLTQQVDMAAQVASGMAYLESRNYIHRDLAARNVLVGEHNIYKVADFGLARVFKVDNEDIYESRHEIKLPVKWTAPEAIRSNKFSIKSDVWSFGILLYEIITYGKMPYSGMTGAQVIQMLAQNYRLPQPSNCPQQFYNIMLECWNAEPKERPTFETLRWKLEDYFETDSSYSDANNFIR

[14] = biological target: LIM domain kinase 1 (Homo sapiens) (UniProt P53667)
[15] = biological target: Cyclin-dependent kinase-like 2 (Homo sapiens) (UniProt Q92772)
[16] = biological target: Serine/threonine-protein kinase TBK1 (Homo sapiens) (UniProt Q9UHD2)
[17] = biological target: cAMP-dependent protein kinase catalytic subunit beta (Homo sapiens) (UniProt P22694)
[18] = biological target: Calcium/calmodulin-dependent protein kinase type 1 (Homo sapiens) (UniProt Q14012)
Sequence of Calcium/calmodulin-dependent protein kinase type 1 (Homo sapiens) (Q14012 whole entry, looked up): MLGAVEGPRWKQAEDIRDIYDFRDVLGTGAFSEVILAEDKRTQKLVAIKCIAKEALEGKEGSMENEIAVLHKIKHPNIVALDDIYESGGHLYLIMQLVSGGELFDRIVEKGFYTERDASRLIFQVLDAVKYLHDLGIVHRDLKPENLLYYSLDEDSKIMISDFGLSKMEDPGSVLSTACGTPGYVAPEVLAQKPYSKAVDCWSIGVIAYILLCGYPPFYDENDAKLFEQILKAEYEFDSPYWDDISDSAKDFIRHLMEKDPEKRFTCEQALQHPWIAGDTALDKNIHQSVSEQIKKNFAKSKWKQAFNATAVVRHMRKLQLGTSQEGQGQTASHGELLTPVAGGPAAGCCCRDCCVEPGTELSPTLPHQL

Sequence of Ephrin type-A receptor 5 (Homo sapiens) (P54756 whole entry): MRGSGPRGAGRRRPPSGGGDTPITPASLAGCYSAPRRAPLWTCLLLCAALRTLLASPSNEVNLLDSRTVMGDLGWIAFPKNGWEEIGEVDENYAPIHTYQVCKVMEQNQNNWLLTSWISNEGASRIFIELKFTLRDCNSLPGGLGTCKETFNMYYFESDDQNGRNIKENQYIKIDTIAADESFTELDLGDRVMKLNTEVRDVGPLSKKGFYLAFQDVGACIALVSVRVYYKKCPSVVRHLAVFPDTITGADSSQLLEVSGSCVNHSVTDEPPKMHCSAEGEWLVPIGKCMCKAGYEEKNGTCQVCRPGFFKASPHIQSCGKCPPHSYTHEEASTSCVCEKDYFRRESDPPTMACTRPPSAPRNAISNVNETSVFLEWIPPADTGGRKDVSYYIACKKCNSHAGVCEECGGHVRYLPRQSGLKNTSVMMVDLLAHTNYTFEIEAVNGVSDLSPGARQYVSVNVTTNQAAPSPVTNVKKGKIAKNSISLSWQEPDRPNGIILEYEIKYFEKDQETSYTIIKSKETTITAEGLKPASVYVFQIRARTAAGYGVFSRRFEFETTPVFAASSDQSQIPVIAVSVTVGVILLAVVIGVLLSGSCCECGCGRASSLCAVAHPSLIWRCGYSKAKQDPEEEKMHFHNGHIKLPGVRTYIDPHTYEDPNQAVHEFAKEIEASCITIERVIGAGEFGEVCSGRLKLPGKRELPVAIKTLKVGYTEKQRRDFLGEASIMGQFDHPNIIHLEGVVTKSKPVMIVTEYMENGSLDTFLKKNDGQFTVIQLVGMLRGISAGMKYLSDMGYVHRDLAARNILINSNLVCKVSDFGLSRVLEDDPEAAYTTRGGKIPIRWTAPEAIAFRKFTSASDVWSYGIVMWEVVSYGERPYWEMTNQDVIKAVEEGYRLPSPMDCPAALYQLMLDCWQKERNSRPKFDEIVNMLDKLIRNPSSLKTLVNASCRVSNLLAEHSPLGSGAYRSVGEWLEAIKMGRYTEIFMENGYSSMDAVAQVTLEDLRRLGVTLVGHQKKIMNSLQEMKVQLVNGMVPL

Question: What does the source list for `CN(C)C(=O)Cn1cc(-c2nc(C3(c4ccc(-c5cnc(N)nc5)cc4)CC3)no2)cn1` [BI 0153]?
Answer: residual activity [1]: 100%; residual activity [2]: 93%; residual activity [3]: 41%; residual activity [4]: 100%; residual activity [5]: 86%; residual activity [6]: 83%; residual activity [7]: 100%; residual activity [8]: 63%; residual activity [9]: 99%; residual activity [10]: 93%; residual activity [11]: 92%; residual activity [12]: 99%; residual activity [13]: 100%; residual activity [14]: 100%; residual activity [15]: 100%; residual activity [16]: 87%; residual activity [17]: 86%; residual activity [18]: 100%

Question: For `CN(C)C(=O)Cn1cc(-c2nc([C@@](C)(c3ccc(-c4cnc(N)nc4)cc3)C3CC3)no2)cn1` [BI 665915], which residual activity [1] is on record?
Answer: Its residual activity is 100%.

Question: What about the residual activity [2] of the same compound?
Answer: Its residual activity is 84%.

Question: And the residual activity [3]?
Answer: Its residual activity is 100%.

Question: What about the residual activity [4] of the same compound?
Answer: The residual activity was 96%.

Question: What about the residual activity [5] of the same compound?
Answer: Its residual activity is 52%.

Question: And the residual activity [6]?
Answer: The residual activity was 98%.

Question: What about the residual activity [7] of the same compound?
Answer: The residual activity was 85%.

Question: And the residual activity [8]?
Answer: Its residual activity is 96%.

Question: What about the residual activity [9] of the same compound?
Answer: Its residual activity is 97%.

Question: And the residual activity [10]?
Answer: Its residual activity is 93%.

Question: What about the residual activity [11] of the same compound?
Answer: The residual activity was 90%.

Question: What about the residual activity [12] of the same compound?
Answer: The residual activity was 100%.

Question: What about the residual activity [13] of the same compound?
Answer: The residual activity was 90%.

Question: And the residual activity [14]?
Answer: The residual activity was 81%.

Question: What about the residual activity [15] of the same compound?
Answer: Its residual activity is 100%.

Question: And the residual activity [16]?
Answer: Its residual activity is 85%.

Question: What about the residual activity [17] of the same compound?
Answer: The residual activity was 100%.

Question: And the residual activity [18]?
Answer: Its residual activity is 100%.
